14 compounds from patent US10385108B2, “Peptide analogs of alpha-melanocyte stimulating hormone” (Genzyme Corporation, priority 2008, dated 2019) can be followed below.

This test has as its target MC1R (Homo sapiens, UniProt Q01726). The experiment in a line: Competitive binding with 125I-NDP-MSH, HEK293 membrane preparations, MC1R.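 As to all read-outs here: Read-out: receptor-bound radioligand retained by filtration and counted.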 To be noted: for Ki: Ki MC1R, competition with 125I-NDP-MSH.

Each structure is given as a SMILES string. Where a SMILES comes first, the peptide text is derived from it. [ ]: non-standard residue; d: D form. The star is where a group is joined. dBta = N[C@H](Cc1csc2ccccc12)C(=O)O; d3Pal = N[C@H](Cc1cccnc1)C(=O)O; d2Thi = N[C@H](Cc1cccs1)C(=O)O; NH(CH2)3Ph = c1ccc(CCCN*)cc1; dNle = CCCC[C@@H](N)C(=O)O

Chain of MC1R (Q01726 whole entry): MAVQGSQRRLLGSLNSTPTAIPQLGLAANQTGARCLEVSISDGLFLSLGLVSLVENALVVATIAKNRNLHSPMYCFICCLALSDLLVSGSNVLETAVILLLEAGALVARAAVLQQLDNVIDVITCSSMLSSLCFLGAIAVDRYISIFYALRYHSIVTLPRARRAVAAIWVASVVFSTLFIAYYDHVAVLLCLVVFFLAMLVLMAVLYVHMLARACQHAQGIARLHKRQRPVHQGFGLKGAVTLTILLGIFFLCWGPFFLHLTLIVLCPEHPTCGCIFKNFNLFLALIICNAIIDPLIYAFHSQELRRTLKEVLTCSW
Description: Binding analysis was done by Cerep laboratories (Paris, France) with coded samples.
The mixtures were filtered through 96-well GFC filters (Millipore, Billerica, Mass.), washed 3 times with binding buffer without BSA, dried and counted.
A competitive binding assay using a MCR panel including MCR 1, 3, 4, and 5 was performed.

The term Ki denotes a measure of affinity in units of concentration, obtained from inhibition or displacement. Lower therefore signals tighter binding. `CC(C)[C@@H](N)C(=O)N1CCC[C@@H]1C(=O)N[C@H](CCCCN)C(=O)NCC(=O)N[C@H](Cc1c[nH]c2ccccc12)C(=O)N[C@H](CCCNC(=N)N)C(=O)N[C@H](Cc1ccccc1)C(=O)N[C@H](Cc1c[nH]cn1)C(=O)O` [847int, vpkGwrfh] (H-[dV][dP][dK]G[dW][dR][dF][dH]-OH) displayed a Ki of 150 nM.

Regarding `CSCC[C@@H](NC(=O)[C@@H](CCC(=O)O)NC(=O)[C@@H](Cc1c[nH]cn1)NC(=O)[C@@H](Cc1ccccc1)NC(=O)[C@@H](CCCNC(=N)N)NC(=O)[C@@H](Cc1ccccc1)NC(=O)CNC(=O)[C@@H](CCCCN)NC(=O)[C@H]1CCCN1C(=O)[C@H](NC(C)=O)C(C)C)C(=O)N[C@H](CO)C(=O)N[C@H](Cc1ccc(O)cc1)C(=O)N[C@H](CO)C(N)=O` [862-b, vpkGfrfhemsys] (Ac-[dV][dP][dK]G[dF][dR][dF][dH][dE][dM][dS][dY][dS]-NH2), the Ki is 128 nM.

For `CSCC[C@@H](NC(=O)[C@@H](C)NC(=O)[C@@H](Cc1c[nH]cn1)NC(=O)[C@@H](Cc1ccccc1)NC(=O)[C@@H](CCCNC(=N)N)NC(=O)[C@@H](Cc1c[nH]c2ccccc12)NC(=O)CNC(=O)[C@@H](CCCCN)NC(=O)[C@H]1CCCN1C(=O)[C@H](NC(C)=O)C(C)C)C(=O)N[C@H](CO)C(=O)N[C@H](Cc1ccc(O)cc1)C(=O)N[C@H](CO)C(N)=O` [compound 808, vpkGwrfhamsys] (Ac-[dV][dP][dK]G[dW][dR][dF][dH][dA][dM][dS][dY][dS]-NH2), the affinity corresponds to a Ki of 2.5 nM.

Regarding `CCCCCCCCCCCCCCCCCC(=O)N[C@@H](Cc1c[nH]cn1)C(=O)N[C@H](Cc1ccccc1)C(=O)N[C@@H](CCCNC(=N)N)C(=O)N[C@@H](Cc1c[nH]c2ccccc12)C(N)=O` [compound 820, (Stearyl) HfRW], the inhibitory constant (Ki) was determined as 1.3 nM. Also, for the setting “relative to the unmodified tetrapeptide”, the “improvement of binding to MC1R by stearyl addition to the core tetrapeptide” value amounted to 80 fold.

For `CC(C)[C@@H](N)C(=O)N1CCC[C@@H]1C(=O)N[C@H](CCCCN)C(=O)NCC(=O)N[C@H](Cc1c[nH]c2ccccc12)C(=O)N[C@H](CCCNC(=N)N)C(=O)N[C@H](Cc1ccccc1)C(=O)N[C@H](Cc1c[nH]cn1)C(=O)NCCCc1ccccc1` [compound 847, vpkGwrfh] (H-[dV][dP][dK]G[dW][dR][dF][dH]-{NH(CH2)3Ph}), the “affinity for MC1R compared with parent peptide (in words)” value is given as “no increase in the affinity” and affinity was put at a Ki of 104 ± 72 nM.

Consider `CSCC[C@@H](NC(=O)[C@@H](CCC(=O)O)NC(=O)[C@@H](Cc1c[nH]cn1)NC(=O)[C@@H](Cc1ccccc1)NC(=O)[C@@H](CCCNC(=N)N)NC(=O)[C@@H](Cc1c[nH]c2ccccc12)NC(=O)CNC(=O)[C@@H](CCCN)NC(=O)[C@H]1CCCN1C(=O)[C@H](NC(C)=O)C(C)C)C(=O)N[C@H](CO)C(=O)N[C@H](Cc1ccc(O)cc1)C(=O)N[C@H](CO)C(N)=O` [compound 857, vp(D-Ornithine)Gwrfhemsys], for which the Ki was 3 nM.

Consider `CCCC[C@@H](NC(=O)[C@H]1CCCN1C(=O)[C@H](NC(C)=O)C(C)C)C(=O)NCC(=O)N[C@H](Cc1c[nH]c2ccccc12)C(=O)N[C@H](CCCNC(=N)N)C(=O)N[C@H](Cc1ccccc1)C(=O)N[C@H](Cc1c[nH]cn1)C(=O)N[C@H](CCC(=O)O)C(=O)N[C@H](CCSC)C(=O)N[C@H](CO)C(=O)N[C@H](Cc1ccc(O)cc1)C(=O)N[C@H](CO)C(N)=O` [compound 858, vp(D-Norleucine)Gwrfhemsys] (Ac-[dV][dP][dNle]G[dW][dR][dF][dH][dE][dM][dS][dY][dS]-NH2), for which the Ki was 18 nM.

As for `CSCC[C@@H](NC(=O)[C@@H](CCC(=O)O)NC(=O)[C@@H](Cc1c[nH]cn1)NC(=O)[C@@H](Cc1ccccc1)NC(=O)[C@@H](CCCNC(=N)N)NC(=O)[C@@H](Cc1csc2ccccc12)NC(=O)CNC(=O)[C@@H](CCCCN)NC(=O)[C@H]1CCCN1C(=O)[C@H](NC(C)=O)C(C)C)C(=O)N[C@H](CO)C(=O)N[C@H](Cc1ccc(O)cc1)C(=O)N[C@H](CO)C(N)=O` [compound 859, vpkG(3-benzothienyl-D-Alanine)rfhemsys] (Ac-[dV][dP][dK]G[dBta][dR][dF][dH][dE][dM][dS][dY][dS]-NH2), the affinity corresponds to a Ki of 206 nM.

Compound `CSCC[C@@H](NC(=O)[C@@H](CCC(=O)O)NC(=O)[C@@H](Cc1c[nH]cn1)NC(=O)[C@@H](Cc1ccccc1)NC(=O)[C@@H](CCCNC(=N)N)NC(=O)[C@@H](Cc1c[nH]c2ccc(O)cc12)NC(=O)CNC(=O)[C@@H](CCCCN)NC(=O)[C@H]1CCCN1C(=O)[C@H](NC(C)=O)C(C)C)C(=O)N[C@H](CO)C(=O)N[C@H](Cc1ccc(O)cc1)C(=O)N[C@H](CO)C(N)=O` [compound 860, vpkG(5-hydroxy-D-Trp)rfhemsys] showed a Ki of 96 nM.

With `COc1ccc2[nH]cc(C[C@@H](NC(=O)CNC(=O)[C@@H](CCCCN)NC(=O)[C@H]3CCCN3C(=O)[C@H](NC(C)=O)C(C)C)C(=O)N[C@H](CCCNC(=N)N)C(=O)N[C@H](Cc3ccccc3)C(=O)N[C@H](Cc3c[nH]cn3)C(=O)N[C@H](CCC(=O)O)C(=O)N[C@H](CCSC)C(=O)N[C@H](CO)C(=O)N[C@H](Cc3ccc(O)cc3)C(=O)N[C@H](CO)C(N)=O)c2c1` [compound 861, vpkG(5-methoxy-D-Trp)rfhemsys], the inhibition constant Ki was determined as 75 nM.

Compound `CSCC[C@@H](NC(=O)[C@@H](CCC(=O)O)NC(=O)[C@@H](Cc1c[nH]cn1)NC(=O)[C@@H](Cc1ccccc1)NC(=O)[C@@H](Cc1c[nH]cn1)NC(=O)[C@@H](Cc1c[nH]c2ccccc12)NC(=O)CNC(=O)[C@@H](CCCCN)NC(=O)[C@H]1CCCN1C(=O)[C@H](NC(C)=O)C(C)C)C(=O)N[C@H](CO)C(=O)N[C@H](Cc1ccc(O)cc1)C(=O)N[C@H](CO)C(N)=O` [compound 865, vpkGwhfhemsys] (Ac-[dV][dP][dK]G[dW][dH][dF][dH][dE][dM][dS][dY][dS]-NH2) registered a Ki of 2300 nM.

In turn, `CSCC[C@@H](NC(=O)[C@@H](CCC(=O)O)NC(=O)[C@@H](Cc1c[nH]cn1)NC(=O)[C@@H](Cc1cccnc1)NC(=O)[C@@H](CCCNC(=N)N)NC(=O)[C@@H](Cc1c[nH]c2ccccc12)NC(=O)CNC(=O)[C@@H](CCCCN)NC(=O)[C@H]1CCCN1C(=O)[C@H](NC(C)=O)C(C)C)C(=O)N[C@H](CO)C(=O)N[C@H](Cc1ccc(O)cc1)C(=O)N[C@H](CO)C(N)=O` [compound 867, vpkGwr(3-pyridyl-D-Alanine)hemsys] (Ac-[dV][dP][dK]G[dW][dR][d3Pal][dH][dE][dM][dS][dY][dS]-NH2) registered a Ki of 480 nM.

With `CSCC[C@@H](NC(=O)[C@@H](CCC(=O)O)NC(=O)[C@@H](Cc1c[nH]cn1)NC(=O)[C@@H](Cc1cccs1)NC(=O)[C@@H](CCCNC(=N)N)NC(=O)[C@@H](Cc1c[nH]c2ccccc12)NC(=O)CNC(=O)[C@@H](CCCCN)NC(=O)[C@H]1CCCN1C(=O)[C@H](NC(C)=O)C(C)C)C(=O)N[C@H](CO)C(=O)N[C@H](Cc1ccc(O)cc1)C(=O)N[C@H](CO)C(N)=O` [compound 868, vpkGwr(2-thienyl-D-Alanine)hemsys] (Ac-[dV][dP][dK]G[dW][dR][d2Thi][dH][dE][dM][dS][dY][dS]-NH2), the Ki was found to be 5.4 nM.

Take `CSCC[C@@H](NC(=O)[C@@H](CCC(=O)O)NC(=O)[C@@H](Cc1c[nH]cn1)NC(=O)[C@@H](Cc1ccc([N+](=O)[O-])cc1)NC(=O)[C@@H](CCCNC(=N)N)NC(=O)[C@@H](Cc1c[nH]c2ccccc12)NC(=O)CNC(=O)[C@@H](CCCCN)NC(=O)[C@H]1CCCN1C(=O)[C@H](NC(C)=O)C(C)C)C(=O)N[C@H](CO)C(=O)N[C@H](Cc1ccc(O)cc1)C(=O)N[C@H](CO)C(N)=O` [compound 871, vpkGwr(4-Nitro-D-Phe)hemsys]: the affinity, expressed as Ki, was 324 nM.
